These results are taken from patent US5344841A, “Bis-(hydroxylakylamino)-anthraquinone inhibitors of protein kinase C” (Sphinx Pharmaceuticals Corporation, priority 1992, dated 1994).

Counter-ions that a name gives are not always drawn.

The test system of one test is human neutrophils. The test can be described thus: Neutrophil superoxide anion (O2-) release assay, PMA-stimulated. It is filed as cell-based. Particulars: PMA-stimulated O2- production. The method, then:
Neutrophils were isolated form whole blood collected from human volunteers. All reagent materials were obtained from Sigma Chemical Company with the exception of isotonic saline (Travenol Lab., Inc. Deerfield, Ill.) and lymphocyte separation medium (Organon Teknika, Durham, N.C.). Whole blood was drawn and mixed with sodium heparin (final conc. 10 units/ml) to prevent clotting. An equal volume of dextran (3.0%) in isotonic saline was added, mixed, and allowed to settle for 30 min to bind red blood cells (RBC). The supernatant was removed, underlayered with lymphocyte separation medium and centrifuged for 40 min at 400 xg in a centrifuge (Beckman GPR, Norcross, Ga.). […] The washed pellet was resuspended in 10 ml HBSS and placed on ice before counting on a hemacytometer. The neutrophil cell concentration is adjusted to 2×10^6 cells/ml with HBSS before adding 0.8 ml cells to 12×75 mm polypropylene test tubes (Fisher Scientific). Test agents are diluted to determine dose response and added at 10×final concentration at a volume of 0.1 ml/tube in duplicate. […] Tubes are then centrifuged at 900 xg for 10 min, 0.5 ml supernatant is removed and added to 0.5 ml H2 O in a microcuvette. Optical density (OD) of cytochrome c is read in a spectrophotometer (Shimadzu) at 550 nm. The ΔOD of cytochrome c is obtained between PMA-stimulated and non-stimulated tubes, and the dose responses of the test agents are compared to the positive controls (which contain HBSS in place of test agents). PMA stimulates O2^- production which reduces cytochrome c. Reducing cytochrome c increases its absorbance, and the change in OD of cytochrome c is proportional to the amount of O2^- produced by PMA stimulation. Inhibition of the O2^- burst by test compounds of the invention is seen as a reduction in the change in optical density. Inhibition is expressed as IC50 μM and is the amount of test compound that will inhibit fifty percent of the PMA-stimulated respiratory outburst, i.e. O2^- production.

For another test, the target named is protein kinase C. The test can be described thus: Protein kinase C (PKC) inhibition assay (histone H1 phosphorylation). Type of test: biochemical. The conditions noted are these: rat brain PKC, histone H1 substrate. How it is done:
The protein kinase C (PKC) assay is designed to duplicated the in vivo conditions required for protein kinase C function. Therefore, pH, salt and cofactor concentrations are similar to physiologic levels. Histone H1 (lysine rich) is used in the assay as the phosphorylation acceptor protein because it is readily available and serves as a good substrate for protein kinase C. The enzyme is prepared from rat brain and is purified to apparent homogeneity as determined by a single band on silver stained SDS-polyacrylamide. Studies on the mechanism of regulation of protein kinase C by phospholipids, DAG and Ca^+2 have been hampered by the physical properties of the lipid cofactors. In the screening assay, phosphatidylserine (PS) and DAG are cosonicated to form unilamellar and multilamellar vesicles. The concentration of lipids in the assay are suboptimal to maximize the detection potential of the assay for inhibitors. […] The assay is started with the addition of enzyme and stopped after 10 min by the addition of 25% trichloroacetic acid (TCA) and 1.0 mg/ml bovine serum albumin (BSA). The radioactive histone product is retained and washed on glass fiber filters that allow the unreacted ^32 P-ATP to pass through. The amount of phosphorylation is determined by the radioactivity measured in a scintillation counter. Controls are included in every assay to measure background activity in the absence of enzyme, activity in the absence of lipids and the maximum enzyme activity with saturating levels of the activator lipids.

Test [1] has as its system 8226/ADR adriamycin resistant line of 8226 cells. The test can be described thus: Human tumor growth inhibition, 3H-thymidine incorporation, 8226/ADR. Particulars: 3H-thymidine uptake. It is filed as cell-based. Background: Incorporation of labelled thymidine or its analogues reports DNA synthesis.
For the next test, the system named is NHEK human keratinocytes. The test can be described thus: Human keratinocyte inhibition, 3H-thymidine incorporation. It is filed as cell-based. How it is done:
Human tumor cells are trypsinized (0.05% trypsin, GIBCO), counted with a hemacytometer and seeded at a concentration of 10,000 cells/well in a 96 well microtiter plate. After allowing cells to attach to the surface overnight, the culture medium is aspirated and replaced with 100 μl of fresh medium. Test agents are diluted to determine dose response at 2× final concentration and added in quadruplicate at 100 μl/well to bring the total volume of each well to 200 μl. The microtiter plate is then incubated at 37° C. 5% CO2 overnight (18-24 hrs) before ^3 H-thymidine is added at a concentration of 0.5 μCi/well in 50 μl culture medium. The plate is incubated again for 4 hrs under the same conditions as above. […] Cells are checked microscopically to determine detachment from surfaces, and plates are then harvested with a cell harvester (PHD, Cambridge Technology, Inc.) Filter papers corresponding to wells are placed in scintillation vials and counted to determine the amount of ^3 H-thymidine incorporated by the cells. […]
Proliferating keratinocytes (NHEK cells purchased from Clonetics, Inc. San Diego, Calif.) in second passage were grown in Keratinocyte Growth Medium (KGM) (Clonetics, Inc.) Cells were trypsinized with 0.025% trypsin (Clonetics), counted with a hemacytometer (Scientific Products), and seeded at a concentration of 2,500 cells/well in a 96 well microtiter plate. […]

In test [2] the test system is 8226/MT Mitoxantrone resistant line of 8226 cells. The test can be described thus: Human tumor growth inhibition, 3H-thymidine incorporation, 8226/MT.
For test [3], the system named is MCF-7/ADR adriamycin resistant line of MCF-7 cells. Kind of test: Human tumor growth inhibition, 3H-thymidine incorporation, MCF-7/ADR. It is filed as cell-based. The conditions noted are these: MCF-7/ADR vs MCF-7. The source says:
(§1) MCF-7 a human breast tumor cell line, and MCF-7/ADR an adriamycin resistant line of MCF-7 cells were obtained from the National Cancer Institute, Frederick, Md. NHEK a human keratinocyte cell line was obtained from Clonetic Corp., San Diego, Calif. 8226 a human myeloma cell line, 8226/MT a Mitoxantrone resistant line of 8226 cells, and 8226 ADR an adriamycin resistant line of 8226 cells were obtained from Dr. Bill Dalton, Arizona Cancer Center, Tuscon, Ariz.
(§2) Human tumor cells are trypsinized (0.05% trypsin, GIBCO), counted with a hemacytometer and seeded at a concentration of 10,000 cells/well in a 96 well microtiter plate. After allowing cells to attach to the surface overnight, the culture medium is aspirated and replaced with 100 μl of fresh medium. Test agents are diluted to determine dose response at 2× final concentration and added in quadruplicate at 100 μl/well to bring the total volume of each well to 200 μl. The microtiter plate is then incubated at 37° C. 5% CO2 overnight (18-24 hrs) before ^3 H-thymidine is added at a concentration of 0.5 μCi/well in 50 μl culture medium. The plate is incubated again for 4 hrs under the same conditions as above. Supernatant is then aspirated and 50 μl trypsin (0.05%, GIBCO) is added to each well. Cells are checked microscopically to determine detachment from surfaces, and plates are then harvested with a cell harvester (PHD, Cambridge Technology, Inc.) Filter papers corresponding to wells are placed in scintillation vials and counted to determine the amount of ^3 H-thymidine incorporated by the cells. Test agent response is compared to a positive control of cell wells with culture media only to determine the IC50. IC50 is the concentration of test compound required to inhibit fifty percent of the incorporation of ^3 H-thymidine into proliferating cells not exposed to test agent. Uptake of ^3 H-thymidine is a standard test for measuring the metabolism of cells. Cells which are actively proliferating take up ^3 H-thymidine, whereas cells that are not proliferating take up ^3 H-thymidine at much slower rates or not at all. Test agents that inhibit the uptake of ^3 H-thymidine thus slow the growth of cells.

The test system of another test is P388 murine leukemia. Kind of test: P388 leukemia tumor assay in mice, survival time. It is filed as in vivo, mouse. Particulars: for % T/C p388 Leukemia: survival time. The source says: P388 Leukemia Tumors. Mice were young adult, pathogen-free, BALA/c×DBA/2 F1 (i.e., CD2F1) females purchased from Charles River Laboratories. The tumor line was the P388 murine leukemia, ascites form, obtained from the National Cancer Institute (NCI) Tumor Repository (Frederick, Md.). The tumor was maintained in the serial passage in mice by periodic intraperitoneal (ip) implantation. For this experiment, 10^6 hemacytometer-counted P388 murine leukemia cells were implanted ip into mice on Day 0. The mice were randomized into one untreated control group of 20 and 15 test groups of six mice each. All drug treatment was delivered ip on the basis of the average body weight of each group. […] Body weights were recorded on Days 1, 5, 9, 11, and 18. Deaths were recorded daily. Dying mice were necropsied, and the presence or absence of ascites or splenomegaly was recorded. Drug effectiveness was assessed on the basis of the survival time. Results were expressed as a percentage of the control survival time (Survival Time=T/C×100%; T=test animals; C=control animals). The criterion for effectiveness was determined by: T/C×100≥125 percent.

Test [4] concerns MCF-7 human breast tumor cell line. The test can be described thus: Human tumor growth inhibition, 3H-thymidine incorporation, MCF-7. It is filed as cell-based. Particulars: 3H-thymidine uptake; read-out: IC50 MCF-7.
Excerpt: as §1, §2

Test [5] has as its system 8226/ADR adriamycin resistant line of 8226 cells. The test can be described thus: Human tumor growth inhibition, 3H-thymidine incorporation, 8226/ADR. It is filed as cell-based. Particulars: 8226/ADR vs 8226.
Excerpt: as §1, §2

In test [6] the test system is MCF-7/ADR adriamycin resistant line of MCF-7 cells. The test can be described thus: Human tumor growth inhibition, 3H-thymidine incorporation, MCF-7/ADR. It is filed as cell-based. The conditions noted are these: NCI/ADR-RES, 3H-thymidine uptake.
Another test deals with Melanotic Melanoma B16. The test can be described thus: Melanotic melanoma B16 test in mice, survival time. It is filed as in vivo, mouse. Particulars: 100 mg/kg ip once daily for nine days. The method, then: Melanotic Melanoma B16 Test. The animals used were B6 C3 F1 mice, all of one sex, weighing a minimum of 18 g for males and 17 g for females and all within a 4 g weight range at the start of the test. The test group comprised 9 or 10 mice. The tumor was implanted in each of the test mice by the subcutaneous injection of 0.5 ml of a tumor homogenate prepared by homogenizing a 1 g portion of melanotic melanoma in 10 ml of cold physiological saline. Compound 1a-1 suspended in hydroypropylcellulose was administered intraperitoneally at a dose of 100 mg/kg once daily for nine consecutive days staring on Day 1 relative to the day of tumor inoculation (Day 0). The control mice received injections of hydroxyproplcellulose vehicle only. The mice were weighed and survivors were recorded on a regular basis for sixty days. The median survival times and the ratio of the median survival times for treated (T) to control (C) mice were calculated. The median survival time of the nontreated rumored mice ranged from 15 to 17 days. Drug effectiveness was assessed on the basis of survival time. Results were expressed as a percentage of the control survival time (Survival Time T/C×100%; T=test animals; C=control animals). The criterion for effectiveness was determined by T/C×100≥125 percent.

The test system of test [7] is 8226 human myeloma cell line. The test can be described thus: Human tumor growth inhibition, 3H-thymidine incorporation, 8226. It is filed as cell-based. The conditions noted are these: 3H-thymidine uptake, read-out: IC50 8226.
Excerpt: as §1, §2

`CCN(CC)CC(O)CNc1ccc(NCC(O)CCl)c2c1C(=O)c1ccccc1C2=O` (centres unmarked) [1a-1 (HCl), 1-(3-Diethylamino-2-Hydroxypropylamino)-4-(3-Chloro-2-Hydroxypropylamino)-9, 10-Anthracenedione Hydrochloride Salt]: the IC50 in the test with human neutrophils (Hydrochloride Salt) was greater than 12500 nM; at protein kinase C (Hydrochloride Salt), 230000 nM; on protein kinase C (listed as 1a-1 (HCl salt), Hydrochloride Salt) it was 230000 nM.

In the case of `CCN(CC)CC(O)CNc1ccc(NCC(O)CCl)c2c1C(=O)c1ccccc1C2=O` (centres unmarked) [1a-1 (base), 1-(3-diethylamino-2-hydroxypropylamino)-4-(chloro-2-hydroxypropylamino)-9,10 anthracenedione], the IC50 in the test with human neutrophils (Homo sapiens, Neutrophil) is greater than 6250 nM; against protein kinase C, 180000 nM.

Take `CCN(CC)CC(O)CNc1ccc(NCC(O)CCl)c2c1C(=O)c1ccccc1C2=O` (centres unmarked) [Compound 1a-1]: the IC50 in test [1] turned out to be 80 nM; in the test on NHEK human keratinocytes, 160 nM; in test [2] (Homo sapiens, read-out: IC50 8226/MT), 240 nM; in test [4], 250 nM; in test [6], 500 nM; in test [7] it was 1000 nM. Further, the “Resistance Ratio (8226/MT)” value in test [2] (8226/MT vs 8226) was found to be 0.24. Moreover, the “ratio of IC50 for 8226 cells to IC50 for 8226/MT cells” value in test [2] (text wording of ratio) amounted to 0.24. Besides, the “Resistance Ratio (IC50 MCF-7/ADR to IC50 MCF-7)” value in test [3] is on record as 2. Also, the “% T/C p388 Leukemia” value in the test on P388 murine leukemia (67 mg/kg, Q1D × 9, ip) worked out at 140%; with P388 murine leukemia (150 mg/kg Q1D × 9, ip), 130%. Besides, the “survival time of mice (in words)” value with P388 murine leukemia (all dosages and schedules) was “effectively increased the survival time”. Also, the “Resistance Ratio (8226/ADR)” value in test [5] was 0.08. Also, the “% T/C (B16 median survival time)” value in the test on Melanotic Melanoma B16 is 129%. In addition, the “effect on survival time of mice (in words)” value in the test with Melanotic Melanoma B16 was “effective for increasing survival time of the mice”.
